In patent US11634451B2, “Method for the site-specific enzymatic labelling of nucleic acids in vitro by incorporation of unnatural nucleotides” (The Scripps Research Institute, priority 2013, dated 2023):

Legend:
Type in all cases: biochemical
[1] = target: T1, Klenow fragment of E. coli DNA polymerase I (Escherichia coli, UniProt P00582); assay: Presteady-state kinetics: incorporation of unnatural triphosphate opposite dNaM and extension; settings: 2 μM dCTP, 10 s, dXTPs paired with dNaM; for % Incorporation: 40 nM unnatural triphosphate; for % Extension: 10 μM unnatural triphosphate
T1 construct: the Klenow fragment of E. coli DNA polymerase I
From the text: Exemplary methods for analyzing unnatural base pair synthesis efficiency (insertion of an unnatural nucleobase opposite its partner in a template) and extension (continued primer elongation) are provided herein. One or both of the nucleobases in an unnatural base pair, in various embodiments, may be a linker-derivatized unnatural nucleobase. One method uses a presteady-state assay. The assay is based on determining, under a fixed set of conditions, the amount of a primer (e.g. 23-mer) that is extended by addition of the unnatural nucleotide opposite its complementary nucleotide in a template (e.g., 45-mer) by a polymerase (e.g., the Klenow fragment of E. coli DNA polymerase I). In this assay, the efficiency of unnatural base pair synthesis is characterized by measuring the percent incorporation (% inc) at a given concentration of the unnatural and next correct triphosphate, for example using a ratio such as [24-mer+25-mer]/[23-mer+24-mer+25-mer]. In this assay, the efficiency of extension is characterized by measuring the percent extension (% ext) at a given concentration of the next correct nucleotide and saturating concentrations of unnatural nucleotide, for example using a ratio [25-mer]/[24-mer+25-mer]. Results from an exemplary presteady-state assay are shown in Table 1, wherein the unnatural triphosphate is 5SICS, FPT1, TPT1, TPT2, TPT3, FTPT3, TPT3^PA, or 5SICS^PA. In some embodiments, the percent incorporation of an unnatural nucleobase is at least 60%, 65%, 70%, 71%, 72%, 73%, 74%, 75%, 76%, 77%, 78%, 79%, 80%, 81%, 82%, 83%, 84%, 85%, 86%, 87%, 88%, 89%, 90%, 91%, 92%, 93%, 94%, 95%, 96%, 97%, 98%, or 99%. In some embodiments, the percent extension of a next correct nucleotide following insertion of an unnatural nucleobase is at least 30%, 31%, 32%, 33%, 34%, 35%, 36%, 37%, 38%, 39%, 40%, 41%, 42%, 43%, 44%, 45%, 46%, 47%, 48%, 49%, 50%, 55%, 60%, 65%, 70%, 75%, 80%, 85%, 90% or greater. In some embodiments, synthesis efficiency is increased by derivatizing the unnatural nucleobase. For example, by the addition of a linker, a protected linker, and/or a linker conjugated to a cargo molecule. As another example, derivatization includes atom substitutions, additions, or deletions. In some embodiments, percent extension is increased by derivatizing the unnatural nucleobase. Derivatization of an unnatural nucleobase, in some instances, increases by at least 1-2 orders of magnitude the efficiency of insertion of the nucleotide complementary to the base pair in the template. This increase in efficiency may be due to an increase kcat and a decreased KM.
^aIncorporation assay conditions: 40 nM unnatural triphosphate, […], 10s. ^bExtension assay conditions: […], 2 μM dCTP, 10 s. dXTPs are paired with dNaM.

Taq polymerase [2] = target: T2, Taq polymerase (Thermus aquaticus, UniProt P19821); assay: PCR-based screen and amplification of DNA containing unnatural base pairs, Taq (Example 1); settings: Taq, 10 s Extension, 52 cycles, D6 template
T2 construct: purchased New England Biolabs (Ipswich, Mass.)
Protocol: (§1) The triphosphates of the 6 group were prepared from the previously reported nucleosides (Kubelka, T., Slavetinska, L., Eigner, V. and Hocek, M. Synthesis of 2,6-disubstituted pyridin-3-yl C-2′-deoxyribonucleosides through chemoselective transformations of bromo-chloropyridine C-nucleosides. Org. Biomol. Chem., 11, 4702-4718) according to Ludwig, J. and Eckstein, F. Rapid and efficient synthesis of nucleoside 5′-0-(1-thiotriphosphates), 5′-triphosphates and 2′,3′-cyclophosphorothioates using 2-chloro-4H-1,3,2-benzodioxaphosphorin-4-one. J. Org. Chem., 54, 631-635. The purity of all other triphosphates was confirmed by MALDI-TOF and UV-VIS. Taq and OneTaq DNA polymerases were purchased from New England Biolabs (Ipswich, Mass.). A mixture of dNTPs was purchased from Fermentas (Glen Burnie, Md.). SYBR Green I Nucleic Acid Gel Stain (10,000×) was purchased from Life Technologies (Carlsbad, Calif.). The synthesis of the DNA templates, D8 (Malyshev, D. A., Dhami, K., Quach, H. T., Lavergne, T., Ordoukhanian, P., Torkamani, A. and Romesberg, F. E. Efficient and sequence-independent replication of DNA containing a third base pair establishes a functional six-letter genetic alphabet. Proc. Natl. Acad. Sci. USA, 109, 12005-12010), used for screening rounds 1-5, and D6 (Malyshev, D. A., Seo, Y. J., Ordoukhanian, P. and Romesberg, F. E. PCR with an expanded genetic alphabet. J. Am. Chem. Soc., 131, 14620-14621), used for all other amplifications, was described previously. Sanger sequencing was carried out as described previously (Malyshev, D. A., Dhami, K., Quach, H. T., Lavergne, T., Ordoukhanian, P., Torkamani, A. and Romesberg, F. E. Efficient and sequence-independent replication of DNA containing a third base pair establishes a functional six-letter genetic alphabet. Proc. Natl. Acad. Sci. USA, 109, 12005-12010). Raw Sanger sequencing traces were used to determine the percent retention of the unnatural base pairs, which was converted to fidelity per doubling, as described (Malyshev, D. A., Dhami, K., Quach, H. T., Lavergne, T., Ordoukhanian, P., Torkamani, A. and Romesberg, F. E. Efficient and sequence-independent replication of DNA containing a third base pair establishes a functional six-letter genetic alphabet. Proc. Natl. Acad. Sci. USA, 109, 12005-12010; Malyshev, D. A., Seo, Y. J., Ordoukhanian, P. and Romesberg, F. E. PCR with an expanded genetic alphabet. J. Am. Chem. Soc., 131, 14620-14621).
(§2) All PCR amplifications were performed in a CFX Connect Real-Time PCR Detection System (Bio-Rad), in a total volume of 25 μL using the following conditions: 1× OneTaq reaction buffer, 0.5× Sybr Green I, MgSO4 adjusted to 4.0 mM, 0.2 mM of each dNTP, 50 μM of each unnatural triphosphate, […] of Primer1 and Primer2 (See Table 2), and 0.02 U/μl of the DNA polymerase. Other conditions specific for each round of screening are described in Table 3. Amplified products were purified using DNA Clean and Concentrator-5 spin columns from Zymo Research (Irvine, Calif.). After purification, the PCR products were sequenced on a 3730 DNA Analyzer (Applied Biosystems) to determine the retention of the unnatural base pair as described below. Fidelity was characterized from unnatural base pair (UBP) retention as determined by sequencing with Primer1 on a 3730 DNA Analyzer (Applied Biosystems).
(§3) Specific PCR assay conditions. PCR with the most promising UBPs was carried out with the conditions as described in Table 3. PCR products were further purified on […] gels, followed by single band excision and subsequent clean up using the Zymo Research Zymoclean Gel DNA Recovery Kit. After elution with 20 μl of water, the DNA concentration was measured using fluorescent dye binding (Quant-iT dsDNA HS Assay kit, Life Technologies), and purified amplicons were sequenced in triplicate with both Primer1 and Primer2 to determine UBP retention and thus amplification fidelity. […]

OneTaq polymerase = assay: PCR-based screen and amplification of DNA containing unnatural base pairs, OneTaq (Example 1); settings: OneTaq
Protocol: as §1, §2, §3

Taq polymerase [3] = target: T2, Taq polymerase; assay: PCR amplification assay to determine fidelity, Taq (Example 3)
Protocol: (§4) PCR assay. PCR amplifications were performed in a total volume of 25 μL and with conditions specific for each assay as described in Table 9. After amplification, a 5 μL aliquot was analyzed on a 6% non-denaturing PAGE gel ran along with 50 bp ladder (Life Technologies) to confirm amplicon size. The remaining solution was purified by spin-column (DNA Clean and Concentrator-5; Zymo Research, Irvine, Calif.), followed by 4% agarose gel, recovered with Zymoclean Gel DNA Recovery Kit (Zymo Research), quantified by fluorescent dye binding (Quant-iT dsDNA HS Assay kit, Life Technologies), and sequenced on a 3730 DNA Analyzer (Applied Biosystems). Fidelity was determined as the average % retention of the unnatural base pair per doubling as described below.
(§5) Determination of fidelity. The percent retention of an unnatural base pair (F) was measured using raw sequencing data and normalized to fidelities per doubling. Briefly, the presence of an unnatural nucleotide leads to a sharp termination of the sequencing profile, while mutation to a natural nucleotide results in “readthrough”. The extent of the “read-through” is thus inversely correlated with the retention of the unnatural base pair. To use the sequencing data as a quantitative measurement of PCR fidelity, we performed calibration experiments in the range of 50-100% retention of the unnatural base pair. Therefore, low retention (<50%) and high “read-through” make the quantification inaccurate.
(§6) Quantification of the high retention (>50%) was performed by adjusting the start and stop points for the Sequencing Analysis software (Applied Biosystems) and then determining the average signal intensity individually for each channel (A, C, G and T) for peaks within those defined points (35-45 nucleotides in length) before (section L) and S36 after (section R) the unnatural nucleotide. The R/L ratio was normalized using sequencing calibration plots to account for both noise in the sequencing chromatograms and the read-through in the control samples. […]

OneTaq = assay: PCR amplification assay to determine fidelity, OneTaq (Example 3)
Protocol: as §4, §5, §6

[4] = 1 min Extension, 52 cycles, D6 template
[5] = OneTaq, standard PCR conditions

T2 sequence (P19821 whole entry): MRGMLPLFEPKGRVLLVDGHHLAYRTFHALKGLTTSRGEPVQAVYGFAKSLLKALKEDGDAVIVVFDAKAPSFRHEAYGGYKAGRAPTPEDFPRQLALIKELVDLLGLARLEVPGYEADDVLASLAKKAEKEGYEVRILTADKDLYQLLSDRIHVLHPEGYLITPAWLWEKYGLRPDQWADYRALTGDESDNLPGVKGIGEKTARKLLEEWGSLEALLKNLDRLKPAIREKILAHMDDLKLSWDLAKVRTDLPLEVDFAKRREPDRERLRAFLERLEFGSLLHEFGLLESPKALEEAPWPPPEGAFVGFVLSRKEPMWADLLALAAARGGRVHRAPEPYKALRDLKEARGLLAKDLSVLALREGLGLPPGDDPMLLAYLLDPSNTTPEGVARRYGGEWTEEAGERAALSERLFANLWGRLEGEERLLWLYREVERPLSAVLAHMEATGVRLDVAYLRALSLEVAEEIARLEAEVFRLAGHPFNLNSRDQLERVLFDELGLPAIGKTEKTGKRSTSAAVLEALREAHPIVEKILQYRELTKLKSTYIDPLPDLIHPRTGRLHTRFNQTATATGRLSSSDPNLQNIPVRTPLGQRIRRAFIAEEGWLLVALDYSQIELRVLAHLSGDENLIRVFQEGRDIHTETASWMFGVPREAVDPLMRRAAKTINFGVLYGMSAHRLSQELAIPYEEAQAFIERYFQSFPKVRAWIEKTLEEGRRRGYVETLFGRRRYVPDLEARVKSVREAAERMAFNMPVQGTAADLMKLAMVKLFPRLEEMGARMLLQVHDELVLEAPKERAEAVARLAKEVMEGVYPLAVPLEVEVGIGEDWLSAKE
T1 sequence (P00582 324-928): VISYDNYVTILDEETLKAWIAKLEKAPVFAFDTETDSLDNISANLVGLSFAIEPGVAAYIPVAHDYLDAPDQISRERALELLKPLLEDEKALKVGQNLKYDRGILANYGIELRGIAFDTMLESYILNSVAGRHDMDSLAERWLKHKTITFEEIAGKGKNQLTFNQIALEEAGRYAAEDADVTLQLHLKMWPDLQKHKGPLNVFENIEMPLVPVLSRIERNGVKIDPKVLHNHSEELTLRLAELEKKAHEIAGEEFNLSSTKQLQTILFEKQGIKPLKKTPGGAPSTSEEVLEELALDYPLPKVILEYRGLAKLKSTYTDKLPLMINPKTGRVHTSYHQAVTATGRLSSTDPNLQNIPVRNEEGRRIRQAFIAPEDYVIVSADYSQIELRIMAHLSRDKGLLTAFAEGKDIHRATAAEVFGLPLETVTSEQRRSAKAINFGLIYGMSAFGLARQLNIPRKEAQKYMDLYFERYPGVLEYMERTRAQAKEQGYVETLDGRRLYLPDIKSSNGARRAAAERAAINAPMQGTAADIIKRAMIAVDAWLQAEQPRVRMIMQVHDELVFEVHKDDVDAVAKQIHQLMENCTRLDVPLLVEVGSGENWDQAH

Compound	% Incorporation [1]	% Extension [1]	Amplification, ×10^12 (Taq polymerase [2])	Fidelity per Doubling, % (Taq polymerase [2])	Retention, % (Taq polymerase [2])	Amplification, ×10^12 (OneTaq polymerase; [4])	Fidelity per Doubling, % (OneTaq polymerase; [4])	Retention, % (OneTaq polymerase; [4])	also measured
Cc1cc2ccn([C@H]3C[C@H](O)[C@@H](COP(=O)(O)OP(=O)(O)OP(=O)(O)O)O3)c(=S)c2s1 [TPT2]	65.7 ± 0.5%	34.5 ± 0.5%	–	–	–	–	–	–	–
Cc1cc2c(=S)n([C@H]3C[C@H](O)[C@@H](COP(=O)(O)OP(=O)(O)OP(=O)(O)O)O3)ccc2s1 [TPT1]	28.7 ± 0.5%	8.8 ± 0.2%	–	–	–	–	–	–	–
COc1cc(I)c(F)cc1[C@H]1C[C@H](O)[C@@H](COP(=O)(O)OP(=O)(O)OP(=O)(O)O)O1.O=P(O)(O)OP(=O)(O)OP(=O)(O)OC[C@H]1O[C@@H](n2ccc3ccsc3c2=S)C[C@@H]1O [TPT3-FIMO]	–	–	8.5 ×10^12	99.60 ± 0.09%	84 ± 3%	8.7 ×10^12	99.61 ± 0.03%	84.7 ± 1.1%	–
Cc1cc2c(=S)n([C@H]3C[C@H](O)[C@@H](COP(=O)(O)OP(=O)(O)OP(=O)(O)O)O3)ccc2o1 [FPT1]	7.2 ± 0.2%	32.0 ± 1.5%	–	–	–	–	–	–	–
COc1cc2ccccc2cc1[C@H]1C[C@H](O)[C@@H](COP(=O)(O)OP(=O)(O)OP(=O)(O)O)O1.O=P(O)(O)OP(=O)(O)OP(=O)(O)OC[C@H]1O[C@@H](n2cc(F)c3ccsc3c2=S)C[C@@H]1O [FTPT3-NaM]	–	–	3.7 ×10^12	99.76 ± 0.15%	91 ± 6%	7.0 ×10^12	99.76 ± 0.06%	90 ± 2%	–
O=P(O)(O)OP(=O)(O)OP(=O)(O)OC[C@H]1O[C@@H](n2cc(F)c3ccsc3c2=S)C[C@@H]1O [FTPT3]	66.3 ± 0.5%	33.8 ± 0.2%	–	–	–	–	–	–	–
COc1cc2ccccc2cc1[C@H]1C[C@H](O)[C@@H](COP(=O)(O)OP(=O)(O)OP(=O)(O)O)O1.O=P(O)(O)OP(=O)(O)OP(=O)(O)OC[C@H]1O[C@@H](n2ccc3ccsc3c2=S)C[C@@H]1O [TPT3-NaM]	–	–	5.8 ×10^12	99.66 ± 0.01%	86.5 ± 0.5%	8.3 ×10^12	99.79 ± 0.03%	91.2 ± 1.3%	Fidelity, % (Taq polymerase [3]; Taq PCR (20 cycles), D6 template, dXTP with dNaMTP): 99.7%; amplification efficiency relative to a natural base pair (Taq polymerase [3]; Taq polymerase): 2.5 fold lower; error rate (Taq polymerase [3]; Taq polymerase): 10^−3; Fidelity, % (OneTaq polymerase; 16 cycles, 1 min extension): 99.92 ± 0.11%; Retention, % (OneTaq polymerase; 16 cycles, 1 min extension): 99.23 ± 1.12%; Amplification (OneTaq polymerase; 16 cycles, 1 min extension, -^a = no amplification was detected): 1004; Fidelity, % (OneTaq; OneTaq PCR (48 cycles), D6 template, dXTP with dNaMTP): > 99.98%; amplification efficiency relative to DNA containing just the natural base pairs (OneTaq; [5]): 4 fold lower; error rate (OneTaq; [5]): 10^−4 per nucleotide
